Assay [1] concerns the target T1, glycolate oxidase (Spinacia oleracea, UniProt P05414).
T1 construct: expressed in transfected cells; host or cells: Pichia pastoris, single recombinant (NRRL Y-21001) or double recombinant, spray-dried and/or BAC-permeabilised whole cells
T1 sequence (P05414 1-369): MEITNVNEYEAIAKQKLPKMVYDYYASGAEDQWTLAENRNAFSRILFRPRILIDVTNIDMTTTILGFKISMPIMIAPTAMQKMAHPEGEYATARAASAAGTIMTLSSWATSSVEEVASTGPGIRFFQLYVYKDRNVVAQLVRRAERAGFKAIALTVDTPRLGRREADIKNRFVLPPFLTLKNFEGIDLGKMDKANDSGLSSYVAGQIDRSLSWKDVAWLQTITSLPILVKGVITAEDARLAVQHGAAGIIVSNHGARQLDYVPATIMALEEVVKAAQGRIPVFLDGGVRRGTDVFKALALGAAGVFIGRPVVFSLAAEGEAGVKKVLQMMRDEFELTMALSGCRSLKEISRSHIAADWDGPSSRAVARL
Description: Glycolate oxidase (DCIP) assay on Pichia pastoris whole-cell biocatalyst. In kind it is biochemical, spinach. Particulars: racemic substrate, lactic acid is 100%; for Relative GO activity, Permeabilized: permeabilized cells; for Relative GO activity, Spray-dried: spray-dried cells. On the procedure: Glycolate Oxidase Assay • 1. Weigh approximately 40 mg spray-dried cells (record exact weight) into a 10 mL centrifuge tube. • 2. Add 8.0 mL of DCIP assay solution (0.12 mM 2,6-dichloroindophenol and 80 mM Tris, pH 8.3). A DCIP solution that is stored at 4° C. may be used for up to 2 weeks. • 3. Mix to suspend cells, then remove 50 μL of suspension (about 0.25 mg dry cells) and place in 3.0 mL quartz cuvette with flea stirrer. Add 2.0 mL of DCIP assay solution. Cap with septum and bubble with nitrogen for 3 minutes. • 4. […]
In initial work (in the absence of spray-drying), after fermentation, cells were recovered by solid/liquid separation, and benzalkonium chloride (BAC) detergent was used to permeabilize cells for the enzyme reaction. […] Thus, another experiment (see below) compared spray-dried cells to several other methods of cell preparation: a) not spray-dried and not BAC treated, b) not spray-dried and treated with BAC, and c) spray-dried and treated with BAC. The spray-dried cells were treated with BAC after spray-drying to determine if spray-drying completely permeabilized the cells.
Detergent Cell Permeabilization • 1. Prepare mixture of 10 weight % cells/volume 50 mM phosphate buffer (pH 7.0) at room temperature. Add 0.1% (w/v) benzalkonium chloride. • 2. Stir or mix slowly for 60 minutes at room temperature, 25° C. • 3. Centrifuge (9950×g for 10 minutes at 5° C.), decant, and re-suspend cells three times (10% w/v) in 50 mM phosphate buffer (pH 7.0) at 5° C., centrifuge, decant. • 4. Permeabilized cells may be used immediately or stored up to one year at −80° C. prior to use.

The test system of assay [2] is glycolate oxidase. As to conditions: 100 mM; enzyme extracted from tobacco leaves; cited from earlier work.

The values below come from patent US8940510B2, “Spray dried microbes and methods of preparation and use” (University of Iowa Research Foundation, priority 2007, dated 2015).

On to `CC(C)C(O)C(=O)O` (racemic) [2-Hydroxy-3-methylbutyric acid], for which, in assay [1], the “Relative GO activity, Permeabilized” value came to 1% and the “Relative GO activity, Spray-dried” value is reported as 2%.
The corresponding values for `CCC(O)C(=O)O` (racemic) [2-Hydroxybutyric acid] are 91% and 129%.
The corresponding values for `CCCCCCCCC(O)C(=O)O` (racemic) [2-Hydroxydecanoic acid] are 40% and 49%.
The corresponding values for `O=C(O)C(O)Cc1c[nH]c2ccccc12` (racemic) [3-Indolelactic acid] are 18% and 26%.
In the case of `O=C(O)C(O)Cc1ccccc1` (racemic) [3-Phenyllactic acid], in assay [1], the “Relative GO activity, Permeabilized” value was 25% and the “Relative GO activity, Spray-dried” value was 37%.
The corresponding values for `CC(O)C(=O)O` (racemic) [Lactic acid] are 100% and 100%.
As to `O=C(O)C(O)c1ccccc1` (racemic) [Mandelic acid], in assay [1], the “Relative GO activity, Permeabilized” value was determined as 3% and the “Relative GO activity, Spray-dried” value is listed as 3%.
On to `O=C(O)C(O)CCl` (racemic) [β-Chlorolactic acid], for which, in assay [1], the “Relative GO activity, Permeabilized” value is 100% and the “Relative GO activity, Spray-dried” value amounted to 121%.
Turning to `O=C(O)CO` [Glycolic acid], in assay [1], the “Relative GO activity, Permeabilized” value is reported as 90% and the “Relative GO activity, Spray-dried” value is 94%.
`O=C(O)C(=O)O` [Oxalic acid]: in assay [2], the “Effect on the catalytic action of glycolate oxidase” value is “inhibit”.
As for `O=C(O)C(O)Cc1ccc(O)cc1` (centres unmarked) [p-Hydroxyphenyllactic acid], in assay [1], the “Relative GO activity, Permeabilized” value was 26% and the “Relative GO activity, Spray-dried” value came out at 38%.
The corresponding values for Trifluorolactic acid are 11% and 2%.
